Patent US10566550B2, “Formulation containing an organic semiconductor and a metal complex” (Merck Patent GmbH, priority 2015, dated 2020)
In brackets after ≈: the same amount, converted by molar mass.

Test: Solubility of the materials in various solvents at 20° C.
Assay type: physicochemical
Conditions: organic solvent or mixture, thermodynamic from solid
Experimental: For the purposes of this application, the solubility of a material in a solvent is taken to mean the highest material-to-solvent ratio in which the solution at room temperature (at about 20° C.), is clear and stays clear for at least several hours, preferably for at least 5 hours.
The solubility of a material in a solvent is the highest material-to-solvent ratio in which the solution at 20° C. is clear and stays clear for several hours.
The solubility (g/l) is determined according to the following method:
(1) A known amount of the solvent (for example 100 mL) is put in a container
(2) A defined amount of the material is added and the mixture is stirred with a magnetic stirring bar;

[1] = LM8 Toluene:Hexafluorobenzene (7:3)

SMILES	solubility (LM1 Anisole:Xylene (2:1)) [mg/mL]	solubility (LM2 Anisole) [mg/mL]	solubility (LM3 Xylene) [mg/mL]	solubility (LM4 Chlorobenzene) [mg/mL]	solubility (LM5 THF) [mg/mL]	solubility (LM6 Toluene:THF (9:1)) [mg/mL]	solubility (LM7 Hexafluorobenzene) [mg/mL]	solubility [1] [mg/mL]	solubility (LM9 Meta-difluorobenzene) [mg/mL]	solubility (LM10 Fluorobenzene) [mg/mL]	solubility (LM11 Acetonitrile) [mg/mL]	solubility (LM12 Benzonitrile) [mg/mL]	solubility (LM13 Acetone) [mg/mL]	solubility (LM14 DMF) [mg/mL]	solubility (LM15 Toluene:DMF (8:2)) [mg/mL]	solubility (LM16 DMSO) [mg/mL]	solubility (LM17 Methanol) [mg/mL]	solubility (LM18 Toluene:Methanol (8:2)) [mg/mL]	solubility (LM19 EGDME) [mg/mL]	solubility (LM20 Toluene) [mg/mL]
O=C([O][Bi]([O]C(=O)c1ccc(F)c(F)c1F)[O]C(=O)c1ccc(F)c(F)c1F)c1ccc(F)c(F)c1F [M1]	< 7.5	< 7.5	< 7.5	< 7.5	> 100	> 30	15 to 20	15	< 7.5	< 7.5	< 10	> 20	> 20	> 40	15	> 20	> 20	20	> 20	< 7.5
CC1(C)c2ccccc2-c2ccc(N(c3ccc4c(c3)C3(c5ccccc5-c5ccccc53)c3ccccc3-4)c3ccccc3-c3ccccc3)cc21 [OS6]	> 50	100 (≈ 148 mM)	40 (≈ 59.2 mM)		> 40	> 50		30 (≈ 44.4 mM)						10 (≈ 14.8 mM)	25 (≈ 37 mM)	10 (≈ 14.8 mM)		30 (≈ 44.4 mM)		60 (≈ 88.8 mM)
